Measurements from PMC4802308, “Integrating computational and chemical biology tools in the discovery of antiangiogenic small molecule ligands of FGF2 derived from endogenous inhibitors” (Scientific Reports, 2016).

Key:
[1] = Dynamic Light Scattering (photon correlation spectroscopy) and Zeta potential analysis of aggregates in solution; format: physicochemical; settings: for Zeta potential: 1mg/ml solution, in mV (unit assumed)
Description: Binding of 5 water-soluble compounds to FGF2 was further analyzed by surface plasmon resonance (SPR). All the compounds were able to bind FGF2 immobilized to a SPR sensorchip (Suppl. Figure S2). […] In the context of biophysical characterization of compounds, we also tested the formation of aggregates in solution by representative compounds SM.2-16, SM.2-20 and SM.2-23, using Dynamic Light Scattering, which allows measuring nanoparticle size and polydispersion index (by Photocorrelation Spectroscopy) and surface charge (Zeta potential). For all the molecules, at concentrations between 0.03 and 1 mg/ml, the hydrodynamic radius ranged from 2.1 to 2.9 nm, with polydispersity index values between 0.5 and 0.6 (Table 2): no significant variation in the hydrodynamic radius was observed upon decreasing the concentrations, typically indicative of a non-aggregated state. Zeta potential values were strongly negative (indicative of molecule dissociation), ranging from −48 to −52 (Table 2). These findings therefore indicate that the solutions are fairly monodispersed, containing mainly single, charged molecules.
The Photon correlation spectroscopy (PCS) and the Zeta Potential (Zp) values were measured using the Zetasizer Nano ZS (Malvern, Worcestshire, UK), as detailed in Supplementary Material. Data were analyzed by Zetasizer software, version 7.11 (Malvern, Worcestshire, UK).
Photon correlation spectroscopy and Zeta Potential analysis. Photon correlation spectroscopy (PCS) and the Zeta Potential (Zp) values were measured using the Zetasizer Nano ZS (Malvern, Worcestshire, UK) with a fixed 173° scattering angle and a 633 -nm-helium-neon-laser. Data were analyzed by Zetasizer software, version 7.11 (Malvern, Worcestshire, UK). The set up temperature […]
Samples were dissolved in 1 ml of deionized water with 1% HBSS (Hanks’ Balanced Salt solution) to obtain a concentration of about 3mg/ml. For PCS experiments the solution was further diluted with HBSS to the indicated concentration, transferred to a disposable folded capillary cell at room temperature and analyzed 10’ minutes post-diluting.
For Zp measurements, 1mg/ml solution of the compounds were used. Due to the high conductivity of buffer solution precluding electrophoretic mobility measurements, about 3mg of samples were solubilized in 1% HBSS and diluted with suitable volume of deionized water. The solution, was transferred to a disposable folded capillary cell (Malvern, Worcestshire, UK) at room temperature and analyzed 10’ post-diluting. […]

[2] = test system: FGF2-induced vessels sprouting, murine aortic rings; assay: Aortic rings assay (FGF2-induced vessels sprouting, 3D Matrigel); parameters: species or system C57BL/6 mice; settings: FGF2 30 ng/ml, small molecules 100 μM
Description: Figure 4 Biological activity of the selected hits. (A) Endothelial cell proliferation. BAEC were exposed to FGF2 (5 ng/ml) with increasing concentrations of molecules (3–80 μM). After 72 h, cells were stained and proliferation measured as absorbance. Data are the percentage of control proliferation (in absence of molecules), mean of value from 2 experiments performed in triplicate. (B–D) Aortic ring assay. Sections of murine aortas were embedded in Matrigel, in the presence of FGF2 (30 ng/ml) and the indicated small molecule. The formation of capillary structures sprouting from the rings was analyzed after 7 and 11 days as described in Methods, and the angiogenic response expressed as area covered by the sprouting structures (arbitrary units, mean and SE, n ≥ 6). (B) Antiangiogenic activity of the small molecules (100 μM). (C) Examples of time-dependent and dose-dependent effect of two compounds (SM.2–20 and SM.2–23), tested at 100 (diamond), 50 (circle) and 25 μM (triangle) compared to control (black squares). (D) Representative pictures of sprouting from control and SM.2–23 treated aortic sections. Original magnification, 20x. (E,F) Chorioallantoic membrane assay. FGF2 (200 ng) was administered in the absence or presence of the indicated compound (0.5 μg) on day 8 (n = 10). (E) Angiogenic response is evaluated 4 days later, and expressed as number of vessels entering the sponge (mean and SD). (F) Representative pictures are shown. Original magnification, 50x.
Thoracic aortas were removed from mice, cleaned of perivascular adipose tissue and cut into 1 mm segments. Matrigel (75 μl, BD Biosciences) was added to 96 well plates, and allowed to gellify at 37 °C for 30 min. Aortic sections were added to the wells, and covered with a second layer of Matrigel and DMEM 5% FCS containing FGF2 (30 ng/ml) and the indicated concentration of the compounds. The formation of capillary structures sprouting from the rings was analyzed after 4, 7 and 11 days with an inverted-phase contrast microscope (IX70; Olympus). Images were analyzed with ImageJ 1.48, and the angiogenic response expressed as area covered by the sprouting structures (arbitrary units), substracted the area of the aortic section.

FGF2 [3] = target: T1, FGF2 (Homo sapiens, UniProt P09038); assay: Competition with biotinylated recombinant TSP-1 domain (E123CaG1) for binding to FGF2 (DELFIA); settings: for IC50: mean ± SE of 3 experiments; for fold more active than the initial query SM27 (competition IC50): vs SM27
T1 construct: purchased R&D Systems, obtained through the NCI-Biological Resources Branch

FGF2 [4] = target: T1, FGF2; assay: SPR direct binding to sensorchip-immobilized FGF2; settings: single site model, one experiment representative of two, read-out: Kd (dissociation constant) of FGF2/compound interaction
Description: SPR measurements were performed on a BIAcore X100 instrument (GE-Healthcare, WI). FGF2 was immobilized on a CM5 sensorchip (GE-Healthcare) as described, allowing the immobilization of 7,365 resonance units (RU) (410 fmol/mm^2 of FGF-2).
Suppl. Table S2. Determination of the affinity (Kd) of the FGF2/compound interactions by
Binding parameters were calculated by the non-linear curve fitting software package BIAevaluation
3.2 using a single site model with correction for mass transfer. Dissociation constant (Kd) values
were derived from the dissociation rate/association ratio. Only sensorgrams whose fitting gave
values of X2 lower than 10 were used {Khalifa, 2001 #213}.

FGF2 [5] = target: T1, FGF2; assay: Competition with biotinylated recombinant TSP-1 domain (E123CaG1) for binding to FGF2 (DELFIA); settings: 5 μM
Description: Of the identified hits, 23 (Fig. 1 and Suppl. Table S1), made available from the NCI (NIH), were subjected to experimental analysis of FGF2 binding. We used an indirect assay, based on the competition of the tested molecules with the recombinant TSP-1 type III domain for binding to FGF2, an approach previously employed to analyze the FGF2/SM27 binding.
Figure 2 FGF2-binding property of the selected hits, analyzed with an indirect assay, as ability to compete with the TSP-1 fragment E123CaG1 (comprising the type III repeats domain) for FGF2 binding, as described in Methods. Binding of the biotinylated recombinant domain to FGF2 in the presence or absence of each molecule (5 μM). Data are the percentage of control binding, mean and SE of 3 experiments performed in triplicate. *p < 0.05 compared to control (ANOVA followed by Bonferroni test).
DELFIA® Microtitration plates and reagents were from PerkinElmer. Plates were coated overnight at 4 °C with FGF2 (0.1 μg in 40 μl /well PBS). After washing, non-specific binding sites were saturated by a 30 minute incubation with PBS 1% BSA. The biotin-labeled recombinant TSP-1 fragment (10 nM) was added in 40 μl PBS 1% BSA with or without the indicated concentration of small molecules, and incubated for 3 h at room temperature. The plates were washed with PBS 0.1% BSA and incubated for 1 h with 100 μl/well Eu-Labeled Streptavidin 1:1000 at room temperature. After washing, plates were incubated with DELFIA® Enhancement Solution. Time resolved fluorescence was measured using a Victor[3] multilabel plate reader (PerkinElmer).

T1 sequence (P09038 134-288 limits assumed): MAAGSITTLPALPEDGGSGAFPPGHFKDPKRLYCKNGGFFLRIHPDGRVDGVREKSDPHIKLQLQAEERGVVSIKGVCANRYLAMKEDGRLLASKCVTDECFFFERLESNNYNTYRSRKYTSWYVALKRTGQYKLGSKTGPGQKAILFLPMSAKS

Cc1ccccc1/N=N/c1c(S(=O)(=O)O)cc2cc(NC(=O)Nc3ccc4c(O)c(/N=N/c5ccc6cc(S(=O)(=O)O)ccc6c5)c(S(=O)(=O)O)cc4c3)ccc2c1O [SM.2–20, 4-hydroxy-7-(3-(5-hydroxy-7-sulfo-6-((E)-(6-sulfonaphthalen-2-yl)diazenyl)naphthalen-2-yl)ureido)-3-((E)-o-tolyldiazenyl)naphthalene-2-sulfonic acid]
Hydrodynamic Radius ([1]; 0.03125 mg/ml): 2.186 nm | PdI (polydispersion index) ([1]; 0.03125 mg/ml): 0.523 | Hydrodynamic Radius ([1]; 0.0625 mg/ml): 2.159 nm | PdI (polydispersion index) ([1]; 0.0625 mg/ml): 0.658 | Hydrodynamic Radius ([1]; 0.125 mg/ml): 2.172 nm | PdI (polydispersion index) ([1]; 0.125 mg/ml): 0.635 | Hydrodynamic Radius ([1]; 0.25 mg/ml): 2.480 nm | PdI (polydispersion index) ([1]; 0.25 mg/ml): 0.789 | Hydrodynamic Radius ([1]; 0.5 mg/ml): 2.571 nm | PdI (polydispersion index) ([1]; 0.5 mg/ml): 0.518 | Hydrodynamic Radius ([1]; 1 mg/ml): 2.878 nm | PdI (polydispersion index) ([1]; 1 mg/ml): 0.595 | Zeta potential [1]: −50.2 | inhibition of FGF2-induced vessels sprouting [2]: significantly inhibited | IC50 (FGF2 [3]): 500 ± 110 nM | fold more active than the initial query SM27 (competition IC50) (FGF2 [3]): 6–11 fold | Kd (FGF2 [4]): 318 nM

COc1ccccc1/N=N/c1c(S(=O)(=O)O)cc2cc(NC(=O)Nc3ccc4c(O)c(/N=N/c5ccc6cc(S(=O)(=O)O)ccc6c5N)c(S(=O)(=O)O)cc4c3)ccc2c1O [SM.2–16, 3-((E)-(1-amino-6-sulfonaphthalen-2-yl)diazenyl)-4-hydroxy-7-(3-(5-hydroxy-6-((E)-(2-methoxyphenyl)diazenyl)-7-sulfonaphthalen-2-yl)ureido)naphthalene-2-sulfonic acid]
Hydrodynamic Radius ([1]; 0.03125 mg/ml): 2.140 nm | PdI (polydispersion index) ([1]; 0.03125 mg/ml): 0.495 | Hydrodynamic Radius ([1]; 0.0625 mg/ml): 2.364 nm | PdI (polydispersion index) ([1]; 0.0625 mg/ml): 0.742 | Hydrodynamic Radius ([1]; 0.125 mg/ml): 2.149 nm | PdI (polydispersion index) ([1]; 0.125 mg/ml): 0.452 | Hydrodynamic Radius ([1]; 0.25 mg/ml): 2.511 nm | PdI (polydispersion index) ([1]; 0.25 mg/ml): 0.663 | Hydrodynamic Radius ([1]; 0.5 mg/ml): 2.265 nm | PdI (polydispersion index) ([1]; 0.5 mg/ml): 0.533 | Hydrodynamic Radius ([1]; 1 mg/ml): 2.283 nm | PdI (polydispersion index) ([1]; 1 mg/ml): 0.695 | Zeta potential [1]: −48.0 | inhibition of FGF2-induced vessels sprouting [2]: significantly inhibited | IC50 (FGF2 [3]): 590 ± 90 nM | fold more active than the initial query SM27 (competition IC50) (FGF2 [3]): 6–11 fold | Kd (FGF2 [4]): 125 nM

O=C(Nc1ccc2c(O)c(/N=N/c3ccccc3)c(S(=O)(=O)O)cc2c1)Nc1ccc2c(O)c(/N=N/c3ccccc3)c(S(=O)(=O)O)cc2c1 [SM.2–12, 4-hydroxy-7-(3-(5-hydroxy-6-((E)-phenyldiazenyl)-7-sulfonaphthalen-2-yl)ureido)-3-((E)-phenyldiazenyl)naphthalene-2-sulfonic acid]
prevention of FGF2/TSP-1 binding (first screening) (FGF2 [5]): reduced activity

CC(=O)Nc1ccc(/N=N/c2c(S(=O)(=O)O)cc3cc(NC(=O)Nc4ccc5c(O)c(/N=N/c6ccccc6)c(S(=O)(=O)O)cc5c4)ccc3c2O)cc1 [SM.2–19, 3-((E)-(4-acetamidophenyl)diazenyl)-4-hydroxy-7-(3-(5-hydroxy-6-((E)-phenyldiazenyl)-7-sulfonaphthalen-2-yl)ureido)naphthalene-2-sulfonic acid]
inhibition of FGF2-induced vessels sprouting [2]: not | IC50 (FGF2 [3]): 350 ± 30 nM | fold more active than the initial query SM27 (competition IC50) (FGF2 [3]): 6–11 fold

Cc1ccc(/N=N/c2c(S(=O)(=O)O)cc3cc(NC(=O)Nc4ccc5c(O)c(/N=N/c6ccc7cc(S(=O)(=O)O)ccc7c6)c(S(=O)(=O)O)cc5c4)ccc3c2O)c(C)c1 [SM.2–23, 3-((E)-(2,4-dimethylphenyl)diazenyl)-4-hydroxy-7-(3-(5-hydroxy-7-sulfo-6-((E)-(6-sulfonaphthalen-2-yl)diazenyl)naphthalen-2-yl)ureido)naphthalene-2-sulfonic acid]
Hydrodynamic Radius ([1]; 0.0625 mg/ml): 2.370 nm | PdI (polydispersion index) ([1]; 0.0625 mg/ml): 0.677 | Hydrodynamic Radius ([1]; 0.125 mg/ml): 2.765 nm | PdI (polydispersion index) ([1]; 0.125 mg/ml): 0.557 | Hydrodynamic Radius ([1]; 0.25 mg/ml): 2.951 nm | PdI (polydispersion index) ([1]; 0.25 mg/ml): 0.59 | Hydrodynamic Radius ([1]; 0.5 mg/ml): 2.597 nm | PdI (polydispersion index) ([1]; 0.5 mg/ml): 0.539 | Hydrodynamic Radius ([1]; 1 mg/ml): 2.877 nm | PdI (polydispersion index) ([1]; 1 mg/ml): 0.545 | Zeta potential [1]: −52.2 | inhibition of FGF2-induced vessels sprouting [2]: significantly inhibited | IC50 (FGF2 [3]): 530 ± 110 nM | fold more active than the initial query SM27 (competition IC50) (FGF2 [3]): 6–11 fold | Kd (FGF2 [4]): 93 nM

Cc1cccc(/N=N/c2c(S(=O)(=O)O)cc3cc(NC(=O)Nc4ccc5c(O)c(/N=N/c6ccc7cc(S(=O)(=O)O)ccc7c6)c(S(=O)(=O)O)cc5c4)ccc3c2O)c1 [SM.2–22, 4-hydroxy-7-(3-(5-hydroxy-7-sulfo-6-((E)-(6-sulfonaphthalen-2-yl)diazenyl)naphthalen-2-yl)ureido)-3-((E)-m-tolyldiazenyl)naphthalene-2-sulfonic acid]
inhibition of FGF2-induced vessels sprouting [2]: significantly inhibited | IC50 (FGF2 [3]): 420 ± 90 nM | fold more active than the initial query SM27 (competition IC50) (FGF2 [3]): 6–11 fold | Kd (FGF2 [4]): 39 nM

O=C(Nc1ccc2cc(S(=O)(=O)O)cc(S(=O)(=O)O)c2c1)Nc1ccc2cc(S(=O)(=O)O)cc(S(=O)(=O)O)c2c1 [SM.2–11, 7,7'-(carbonylbis(azanediyl))bis(naphthalene-1,3-disulfonic acid)]
prevention of FGF2/TSP-1 binding (first screening) (FGF2 [5]): lost

O=C(Nc1ccc2cc(S(=O)(=O)O)cc(O)c2c1)Nc1ccc2cc(S(=O)(=O)O)cc(O)c2c1 [SM27, 6,6'-(carbonylbis(azanediyl))bis(4-hydroxynaphthalene-2-sulfonic acid), reference compound]
IC50 (FGF2 [3]): 3900 ± 230 nM | Kd (FGF2 [4]): 335 nM
